Measured values: PubChem BioAssay (NCI)
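Compound exposure: 48 hours, 5 concentrations, 96-well plates. GI50: concentration for 50% inhibition of growth. TGI is the concentration that stops growth completely.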

Columns and labels:
Assay in all cases: NCI tumour cell line growth inhibition, 48 h
[1] = tested on: SK-MEL-28 melanoma
[2] = tested on: NCI-H23 lung
[3] = tested on: SW-620 colon
[4] = tested on: MOLT-4 leukemia
[5] = tested on: 786-0 renal
[6] = tested on: LOX IMVI melanoma
[7] = tested on: MDA-MB-231 breast
[8] = tested on: HCC-2998 colon
[9] = tested on: T-47D breast
[10] = tested on: NCI/ADR-RES ovarian

## CC/C(CC(=O)CCC(=O)Nc1ccc(C)c(C)c1)=N\NC(=O)C(N)=O
[1]
  TGI: > 100 µM
[2]
  TGI: > 100 µM
[3]
  TGI: > 100 µM
[4]
  TGI: > 100 µM
[5]
  TGI: > 100 µM

## Cc1ccc(C)c2c(N=Nc3ccccc3[N+](=O)[O-])c(O)[nH]c12
[6]
  TGI: > 100 µM
[7]
  TGI: > 100 µM
[8]
  TGI: > 100 µM
[1]
  TGI: > 100 µM
[9]
  TGI: > 100 µM
[2]
  TGI: > 100 µM
[3]
  TGI: > 100 µM
[4]
  TGI: > 100 µM
[5]
  TGI: > 100 µM

## C/C=C1\CCC2c3[nH]c4ccccc4c3CCN2C1 (centres undefined)
[1]
  TGI: > 100 µM
[2]
  TGI: > 100 µM
[3]
  TGI: > 100 µM
[4]
  TGI: > 100 µM
[5]
  TGI: > 100 µM

## COC[C@@H](N=CN1CCc2cc(OC)c(OC)cc2C1)C(C)(C)C
[1]
  TGI: > 100 µM
[2]
  TGI: > 100 µM
[3]
  TGI: > 100 µM
[4]
  TGI: > 100 µM
[5]
  TGI: > 100 µM

## CCOC(=O)c1nc2cc(C(F)(F)F)ccc2[n+]([O-])c1C
[6]
  GI50: > 100 µM
  TGI: > 100 µM
[7]
  GI50: > 100 µM
  TGI: > 100 µM
[8]
  GI50: > 100 µM
  TGI: > 100 µM
[10]
  GI50: > 100 µM
  TGI: > 100 µM
[1]
  GI50: > 100 µM
  TGI: > 100 µM
[2]
  GI50: > 100 µM
  TGI: > 100 µM
[3]
  GI50: > 100 µM
  TGI: > 100 µM
[4]
  GI50: > 100 µM
  TGI: > 100 µM
[5]
  GI50: > 100 µM
  TGI: > 100 µM

## O=C(Sc1sc(=S)sc1SC(=O)c1ccccc1)c1ccccc1
[8]
  TGI: > 100 µM
[1]
  TGI: > 100 µM
[2]
  TGI: > 100 µM
[3]
  TGI: > 100 µM
[4]
  TGI: > 100 µM
[5]
  TGI: > 100 µM

## CCCCN1CCN(c2ccc3nc(-c4ccc5nc(-c6ccc(OCC)c(OCC)c6)[nH]c5c4)[nH]c3c2)CC1
[7]
  GI50: 1.69 µM
  TGI: 3.28 µM
[10]
  GI50: > 100 µM
  TGI: > 100 µM
[1]
  GI50: 1.01 µM
  TGI: 2.22 µM
[9]
  GI50: 1.36 µM
  TGI: 7.88 µM
[3]
  GI50: 0.474 µM
  TGI: 1.79 µM
[4]
  GI50: 1.22 µM
  TGI: 3.86 µM
[5]
  GI50: 1.41 µM
  TGI: 2.84 µM

## COc1ccc(/C(=N/O)c2cc(OC)c(OC)c(OC)c2)c(OC)c1N
[6]
  GI50: 7.28 µM
  TGI: > 100 µM
[7]
  GI50: 5.36 µM
  TGI: > 100 µM
[8]
  GI50: 4.29 µM
  TGI: > 100 µM
[1]
  GI50: > 100 µM
  TGI: > 100 µM
[9]
  GI50: 26.2 µM
  TGI: > 100 µM
[2]
  GI50: 7.06 µM
  TGI: > 100 µM
[3]
  GI50: 4.42 µM
  TGI: > 100 µM
[4]
  GI50: 6.94 µM
  TGI: > 100 µM
[5]
  GI50: 12.7 µM
  TGI: > 100 µM

## Cc1cc(NS(=O)(=O)c2ccc(NC(=O)COC(=O)c3cccc4c(=O)c5ccccc5[nH]c34)cc2)no1
[6]
  TGI: > 100 µM
[8]
  TGI: > 100 µM
[1]
  TGI: > 100 µM
[2]
  TGI: > 100 µM
[3]
  TGI: > 100 µM
[4]
  TGI: > 100 µM
[5]
  TGI: > 100 µM

## COC1=CC(=O)NCCN1
[6]
  TGI: 45.2 µM
[8]
  TGI: > 100 µM
[1]
  TGI: > 100 µM
[2]
  TGI: > 100 µM
[3]
  TGI: 50.9 µM
[4]
  TGI: > 100 µM
[5]
  TGI: > 100 µM

## CCc1ncnc2cc(OCC3CO3)c(OC)cc12 (centres undefined)
[6]
  TGI: > 46.9 µM
[7]
  TGI: 60.9 µM
[10]
  TGI: > 100 µM
[1]
  TGI: 37.4 µM
[9]
  TGI: > 100 µM
[2]
  TGI: 16.2 µM
[3]
  TGI: > 50.8 µM
[5]
  TGI: 20.7 µM

## NCCN1C(=O)c2ccccc2C1(O)c1ccc(Cl)cc1 (centres undefined)
[6]
  TGI: 32.8 µM
[7]
  TGI: 34.7 µM
[10]
  TGI: > 100 µM
[1]
  TGI: 33.2 µM
[9]
  TGI: 37.8 µM
[2]
  TGI: > 100 µM
[3]
  TGI: 36.6 µM
[4]
  TGI: 38.8 µM
[5]
  TGI: 30.9 µM

## C#CC(=O)OCC#CCOC(=O)C#C
[6]
  TGI: 2.63 µM
[7]
  TGI: 75.6 µM
[8]
  TGI: 39.6 µM
[10]
  TGI: 76.5 µM
[9]
  TGI: 60.2 µM
[2]
  TGI: 55 µM
[3]
  TGI: 40.6 µM
[5]
  TGI: 31.4 µM

## O=C1c2c(c3c4ccccc4[nH]c3c3[nH]c4ccccc4c23)C(=O)N1Cc1ccccc1
[6]
  TGI: 8.31 µM
[8]
  TGI: 16.3 µM
[1]
  TGI: 11.7 µM
[2]
  TGI: 6.16 µM
[3]
  TGI: 10.9 µM
[4]
  TGI: 7.51 µM
[5]
  TGI: 11.3 µM

## CCOP(=O)(CC(=O)C1=C(O)C(CCCCNC(=O)OC(C)(C)C)N(Cc2ccccc2)C1=O)OCC (centres undefined)
[6]
  TGI: > 100 µM
[8]
  TGI: > 100 µM
[1]
  TGI: > 100 µM
[2]
  TGI: > 100 µM
[4]
  TGI: > 100 µM
[5]
  TGI: > 100 µM

## COc1cc2ccc(CC(N)=O)cc2cc1OC
[6]
  TGI: > 100 µM
[1]
  TGI: > 100 µM
[2]
  TGI: > 100 µM
[3]
  TGI: > 100 µM
[4]
  TGI: > 100 µM
[5]
  TGI: > 100 µM

## CC12CC(Sc3ccccc3N1)c1ccccc1O2 (centres undefined)
[6]
  TGI: 27 µM
[8]
  TGI: 31 µM
[1]
  TGI: 30.4 µM
[2]
  TGI: 29.8 µM
[3]
  TGI: 31.8 µM
[4]
  TGI: 44.6 µM
[5]
  TGI: 31.6 µM

## O=C(NC(=O)c1cc2cc(Br)cc(Br)c2oc1=O)Oc1ccccc1
[6]
  TGI: > 100 µM
[8]
  TGI: > 100 µM
[1]
  TGI: > 100 µM
[2]
  TGI: > 100 µM
[3]
  TGI: > 100 µM
[4]
  TGI: > 100 µM
[5]
  TGI: > 100 µM

## Cc1ccc(C(=O)N=Nc2c(O)[nH]c3ccc(Cl)cc23)cc1
[6]
  GI50: 31.2 µM
  TGI: > 50 µM
[7]
  GI50: 18.7 µM
  TGI: > 50 µM
[10]
  GI50: > 50 µM
  TGI: > 50 µM
[1]
  GI50: 41.8 µM
  TGI: > 50 µM
[2]
  GI50: 16.9 µM
  TGI: > 50 µM
[3]
  GI50: 11.4 µM
  TGI: 41.4 µM
[4]
  GI50: 3.2 µM
  TGI: > 50 µM
[5]
  GI50: > 50 µM
  TGI: > 50 µM

## CCN(CC)CCC(=O)/C=C/c1ccc(C)cc1
[6]
  TGI: 14.6 µM
[8]
  TGI: 32.6 µM
[1]
  TGI: 28.1 µM
[2]
  TGI: 32.4 µM
[3]
  TGI: 14.9 µM
[4]
  TGI: 38.2 µM
[5]
  TGI: 24.7 µM

## Cc1ccc(S(=O)(=O)SCc2ccccc2)cc1
[6]
  TGI: 37.2 µM
[8]
  TGI: 57.4 µM
[1]
  TGI: > 100 µM
[2]
  TGI: 36.2 µM
[3]
  TGI: 14.7 µM
[4]
  TGI: 6.22 µM
[5]
  TGI: 31.4 µM

## O=C(COc1ccc(-c2nc3cc(Cl)c(Cl)cc3[nH]2)cc1)N=Nc1c(O)[nH]c2ccccc12
[6]
  GI50: 1.02 µM
  TGI: 2.64 µM
[7]
  GI50: 1.09 µM
  TGI: 3.43 µM
[8]
  GI50: 1.35 µM
  TGI: 3.75 µM
[10]
  GI50: > 100 µM
  TGI: > 100 µM
[2]
  GI50: 3.03 µM
  TGI: 15.1 µM
[4]
  GI50: 3.57 µM
  TGI: > 100 µM
[5]
  GI50: 2.33 µM
  TGI: 8.5 µM

## COc1cc(NC(C)CCCN)c2ncccc2c1Sc1ccc(Cl)cc1 (centres undefined)
[7]
  GI50: 1.42 µM
  TGI: 2.86 µM
[8]
  GI50: 1.75 µM
  TGI: 3.17 µM
[10]
  GI50: 1.77 µM
  TGI: 3.42 µM
[1]
  GI50: 1.83 µM
  TGI: 3.28 µM
[9]
  GI50: 1.77 µM
  TGI: 3.34 µM
[2]
  GI50: 1.7 µM
  TGI: 3.3 µM
[3]
  GI50: 1.61 µM
  TGI: 3.08 µM
[4]
  GI50: 1.84 µM
  TGI: 4.16 µM
[5]
  GI50: 1.89 µM
  TGI: 3.57 µM
